PMC10033563, “Unique alcohol dehydrogenases involved in algal sugar utilization by marine bacteria” (Applied Microbiology and Biotechnology, 2023)
Each block holds one molecule with its values, some of them ahead of it.

Tests used:
ZoADH = target: T1, ZoADH (Zobellia galactanivorans, UniProt G0L712); test: X-ray crystal structure; type: binding; conditions: co-crystallised with 20 mM NAD+, pH 7.5; Zn2+ bound
T1 construct: gene adhI; codon-optimized synthetic gene in pET28a, N-terminal Strep-tag, E. coli BL21(DE3); homotetramer; 2 Zn per monomer
T1 sequence (G0L712 entry or part of it): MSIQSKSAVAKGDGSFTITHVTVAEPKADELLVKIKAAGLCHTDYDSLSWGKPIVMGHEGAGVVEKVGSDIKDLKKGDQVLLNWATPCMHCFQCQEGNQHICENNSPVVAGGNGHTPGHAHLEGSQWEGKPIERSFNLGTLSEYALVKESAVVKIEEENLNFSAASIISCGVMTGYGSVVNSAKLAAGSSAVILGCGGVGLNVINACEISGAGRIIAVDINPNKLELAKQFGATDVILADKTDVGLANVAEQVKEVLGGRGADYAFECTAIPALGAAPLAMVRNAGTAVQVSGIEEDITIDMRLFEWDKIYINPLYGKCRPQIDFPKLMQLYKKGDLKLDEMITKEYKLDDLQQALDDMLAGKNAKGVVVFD

FoADH = target: T2, FoADH (Formosa agariphila, UniProt T2KM87); test: X-ray crystal structure; type: binding; conditions: co-crystallised with 20 mM NAD+, pH 7.5; Zn2+ bound
T2 construct: gene BN863_21030; full-length from genomic DNA in pET28a, N-terminal Strep-tag, E. coli BL21(DE3); homotetramer; 2 Zn per monomer
T2 sequence (T2KM87 1-370): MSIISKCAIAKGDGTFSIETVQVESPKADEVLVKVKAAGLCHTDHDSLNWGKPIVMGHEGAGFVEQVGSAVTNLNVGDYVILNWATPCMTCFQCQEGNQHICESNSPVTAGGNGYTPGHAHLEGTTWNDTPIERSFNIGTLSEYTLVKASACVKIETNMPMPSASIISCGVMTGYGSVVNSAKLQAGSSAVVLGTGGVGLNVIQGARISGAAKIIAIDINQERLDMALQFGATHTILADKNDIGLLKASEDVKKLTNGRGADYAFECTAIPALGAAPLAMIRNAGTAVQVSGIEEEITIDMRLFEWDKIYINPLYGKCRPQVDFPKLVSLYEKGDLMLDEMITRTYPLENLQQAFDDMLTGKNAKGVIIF

[1] = target: zinc-dependent alcohol dehydrogenase from Zobellia galactanivorans DsijT (Zobellia galactanivorans DsijT); test: crystal structure; enzyme (25 mg/mL) incubated with 20 mM NAD+ overnight; crystals from 0.1 M Tris-HCl pH 7.5, 0.2 M KCl, 20-22% (w/v) PEG 3350 at 22 °C; tetrameric interfaces analysed by PDBePISA; tetramer as a dimer of dimers
[2] = target: the molecule itself; test: as above

Molecule: NC(=O)c1ccc[n+]([C@@H]2O[C@H](COP(=O)(O)OP(=O)(O)OC[C@H]3O[C@@H](n4cnc5c(N)ncnc54)[C@H](O)[C@@H]3O)[C@@H](O)[C@H]2O)c1 [NAD^+]
- X-ray crystal structure (ZoADH): PDB codes 8H2A (FoADH-NAD) and 8H2B (ZoADH-NAD)
- X-ray crystal structure (FoADH): deposited in the Protein Data Bank under PDB codes 8H2A (FoADH-NAD)

- stoichiometry N [1]: 4
Molecule: zinc-dependent alcohol dehydrogenase from Zobellia galactanivorans DsijT (enzyme)

B1: zinc-dependent alcohol dehydrogenase from Formosa agariphila KMM 3901T (enzyme, UniProt T2KM87 1-370, looked up)
chain: T2 sequence (T2KM87 1-370)
notes: FoADH, zinc-dependent alcohol dehydrogenase of Formosa agariphila KMM 3901T (DSM-15362), amplified from genomic DNA into pET28a; the printed insert primers run from the ATG to the stop codon (TTA in the reverse primer); Crystallised with NAD+ and two zinc ions; also called FoADH; ADH; source: E. coli BL21 (DE3), purified (Strep-Tactin XT Sepharose, size exclusion chromatography)
- stoichiometry N [2]: 4
